pEC50: −log10 of the molar value.

This assay concerns the target T1, acetylcholine muscarinic M1 receptor (Homo sapiens, UniProt P11229).
T1 construct: expressed in transfected cells; host or cells: CHOnfat cells (CHO cells with an NFAT reporter) expressing hM1, kept under Geneticin selection
T1 sequence (P11229 1-460): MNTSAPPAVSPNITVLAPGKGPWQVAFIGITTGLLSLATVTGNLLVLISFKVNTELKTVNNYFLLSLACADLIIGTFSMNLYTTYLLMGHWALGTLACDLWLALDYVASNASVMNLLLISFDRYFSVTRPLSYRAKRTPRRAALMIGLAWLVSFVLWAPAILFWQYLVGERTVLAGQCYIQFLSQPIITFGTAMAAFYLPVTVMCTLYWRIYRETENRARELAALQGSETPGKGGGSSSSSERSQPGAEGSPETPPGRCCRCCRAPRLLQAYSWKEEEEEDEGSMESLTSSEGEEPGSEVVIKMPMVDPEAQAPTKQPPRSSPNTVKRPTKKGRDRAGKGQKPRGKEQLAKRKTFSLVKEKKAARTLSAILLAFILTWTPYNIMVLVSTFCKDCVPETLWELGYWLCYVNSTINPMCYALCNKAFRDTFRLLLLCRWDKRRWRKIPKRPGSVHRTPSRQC
Nature of the assay: muscarinic FLIPR assay: intracellular calcium in CHOnfat/hM1 cells, potentiation of EC20 acetylcholine. It counts as cell-based. To be noted: Table 1; CHOnfat/hM1 cells, FLIPR, EC20 acetylcholine (3 nM final); read-out: M1 Pot. The method, then:
The assay studies the effect of one or several concentrations of test compounds on basal or acetylcholine-stimulated Ca^2+ levels using FLIPR.
Compounds are prepared and subjected to a preincubation period of […]. Thereafter, a single EC20 concentration of acetylcholine is added to each well (3 nM final). The intracellular Ca^2+ level of each sample is measured and compared to an acetylcholine control to determine any modulatory activity.
Cells: CHOnfat/hM1, hM2, hM3 or hM4 cells are plated 24 hr before the assay at a density of 18,000 cells/well (100 μL) in a 384 well plate. CHOnfat/hM1 and CHOnfat/hM3 Growth Medium: 90% DMEM (Hi Glucose); 10% HI FBS; 2 mM L-glutamine; 0.1 mM NEAA; Pen-Strep; and 1 mg/ml Geneticin, are added. For M2Gqi5CHOnfat and M4Gqi5CHOnfat cells, an additional 600 ug/ml hygromycin is added.
Equipment: 384 well plate, 120 μl, addition plate; 96-well Whatman 2 ml Uniplate Incubator, 37° C., 5% CO2; Skatron EMBLA-384 Plate Washer; Multimek Pipetting System; Genesis Freedom 200 System; Mosquito System; Temo Nanolitre Pipetting System; and FLIPR^384 Fluorometric Imaging Plate Reader System are used.
Buffers. Assay Buffer: Hanks Balanced Salt Solution, with 20 mM Hepes, 2.5 mM Probenecid (Sigma P-8761) first dissolved in 1 N NaOH, 1% Bovine Serum Albumin (Sigma A-9647). Dye Loading Buffer: Assay Buffer plus 1% Fetal Bovine Serum and Fluo-4AM/Pluronic Acid Mixture. 2 mM Fluo-4AM ester stock in DMSO (Molecular Probes F-14202) Concentration of 2 μM in buffer for a final concentration of 1 μM in Assay. 20% Pluronic Acid Solution stock, with concentration of 0.04% in Buffer, 0.02% in Assay.
65 μL of 2 mM Fluo-4AM are mixed with 130 μL of 20% Pluronic Acid. The resulting solution and 650 μL FBS is added to the assay buffer for a total volume of 65 mL. Positive Controls: 4-Br-A23187: 10 mM in DMSO; final concentration 10 μM. Acetylcholine: 10 mM in water, working stock at both 20 μM and 30 μM in assay buffer, final concentration of 10 μM. This is used to check the maximum stimulation of the CHOK1/hM1 cells. 20 μM (2×) acetylcholine is added in the preincubation part of the assay, and the 30 μM (3×) stock is added in the second part. (EC20)Acetylcholine: 10 mM in water, working stock of 9 nM (3×), and final concentration in assay is 3 nM. This is used after the preincubation with test compounds. Addition of the EC20 Acetylcholine to each well with a test compound will ascertain any modulator activity. 24 wells contain 3 nM Acetylcholine alone as a control.
Determining Activity of Putative Compounds:
Screening Plate Compounds are titrated in 96-well plates (columns 2-11), 100% DMSO, started at a concentration of 15 mM (150× stock concentration), and 3-fold serial dilutions using Genesis Freedom200 System. Four 96-well plates are combined into a 384-well plate using Mosquito Nanolitre Pipetting System by transferring 1 μl of serial diluted compounds to each well, and 1 mM acetylcholine (100× stock concentration) were added as a control. Using Temo, 49 μl assay buffer is added to each well of the 384-well plate right before assay.
In a 96-well Whatman 2 ml Uniplate, 9 nM Acetylcholine (3×) is pipetted into wells corresponding to the screening compounds, and into control wells. The 30 μM acetylcholine control (3×) is added into control wells, and the 3× agonist plate is transferred into a 384 well plate.
Cells are washed three times with 100 μL of buffer, leaving […] of buffer in each well. Using Multimek, 30 μL of Dye Loading Buffer is added into each well and incubated at 37° C., 5% CO2 for up to one hr.
After 60 min, the cells are washed three times with 100 μL of buffer, leaving 30 μL of buffer in each well. The cell plate, screening plate, and agonist addition plates are placed on the platform in the FLIPR and the door closed. A signal test to check background fluorescence and basal fluorescence signal is performed. Laser intensity is adjusted if necessary.
(Calcium flux is commonly read through the fluorescence of an indicator in the cells.)
Consider `O=C1c2cc(CN3CCC4(CC3)COc3ccccc34)c3ccccc3c2CN1C1CCCCC1O` (centres unmarked) [Example 40, 2-(2-hydroxycyclohexyl)-5-(1′H-spiro[1-benzofuran-3,4′-piperidin]-1′-ylmethyl)-1,2-dihydro-3H-benzo[e]isoindol-3-one], for which the pEC50 was 6.14.
On to `O=C1c2cc(CN3CCC(c4ccccc4)CC3)c3ccccc3c2CN1C1CCCCC1O` (centres unmarked) [Example 41, 2-(2-hydroxycyclohexyl)-5-[(4-phenylpiperidin-1-yl)methyl]-1,2-dihydro-3H-benzo[e]isoindol-3-one], for which the pEC50 is 5.85.
Then `O=C1c2cc(CN3CCC(c4ccncc4)CC3)c3ccccc3c2CN1C1CCCCC1O` (centres unmarked) [Example 42, 2-(2-hydroxycyclohexyl)-5-[(4-(4-pyridinyl)piperidin-1-yl)methyl]-1,2-dihydro-3H-benzo[e]isoindol-3-one], with 6.62; and `O=C1c2cc(CN3CCC(O)(c4ccncc4)CC3)c3ccccc3c2CN1C1CCCCC1O` (centres unmarked) [Example 43, 2-(2-hydroxycyclohexyl)-5-[(4-hydroxy-4-pyridin-4-ylpiperidin-1-yl)methyl]-1,2-dihydro-3H-benzo[e]isoindol-3-one], with 6.08.
Then `N#CC1(c2ccccn2)CCN(Cc2cc3c(c4ccccc24)CN([C@@H]2CCCC[C@H]2O)C3=O)CC1` [Example 46, 1-({2-[(1R,2R)-2-hydroxycyclohexyl]-3-oxo-2,3-dihydro-1H-benzo[e]isoindol-5-yl}methyl)-4-pyridin-2-ylpiperidine-4-carbonitrile], with 6.27; and `N#CC1(c2ccccn2)CCN(Cc2cc3c(c4ccccc24)CN([C@@H]2CCCC[C@@H]2O)C3=O)CC1` [Example 47, 1-({2-[(1R,2S)-2-hydroxycyclohexyl]-3-oxo-2,3-dihydro-1H-benzo[e]isoindol-5-yl}methyl)-4-pyridin-2-ylpiperidine-4-carbonitrile], with 6.83.
Then `N#CC1(c2cccc(Cl)n2)CCN(Cc2cc3c(c4ccccc24)CN([C@H]2CCCC[C@@H]2O)C3=O)CC1` [Example 48], with 7.28; and `C=Cc1cccc(C2(C#N)CCN(Cc3cc4c(c5ccccc35)CN([C@H]3CCCC[C@@H]3O)C4=O)CC2)n1` [Example 49, 4-(6-ethenylpyridin-2-yl)-1-({2-[(1S,2S)-2-hydroxycyclohexyl]-3-oxo-2,3-dihydro-1H-benzo[e]isoindol-5-yl}methyl)piperidine-4-carbonitrile], with 6.94; and `N#CC1(c2cnccn2)CCN(Cc2cc3c(c4ccccc24)CN([C@H]2CCCC[C@@H]2O)C3=O)CC1` [Example 50, 1-({2-[(1S,2S)-2-hydroxycyclohexyl]-3-oxo-2,3-dihydro-1H-benzo[e]isoindol-5-yl}methyl)-4-(pyrazin-2-yl)piperidine-4-carbonitrile], with 7.51.
On to `N#CC1(c2ccncn2)CCN(Cc2cc3c(c4ccccc24)CN([C@H]2CCCC[C@@H]2O)C3=O)CC1` [Example 51, 1-({2-[(1S,2S)-2-hydroxycyclohexyl]-3-oxo-2,3-dihydro-1H-benzo[e]isoindol-5-yl}methyl)-4-(pyrimidin-4-yl)piperidine-4-carbonitrile], for which the pEC50 was 7.77.
Then `N#CC1(c2cccnn2)CCN(Cc2cc3c(c4ccccc24)CN([C@H]2CCCC[C@@H]2O)C3=O)CC1` [Example 52, 1-({2-[(1S,2S)-2-hydroxycyclohexyl]-3-oxo-2,3-dihydro-1H-benzo[e]isoindol-5-yl}methyl)-4-(pyridazin-3-yl)piperidine-4-carbonitrile], with 7.57; and `O=C1c2cc(CN3CCC(F)(c4ccccc4)CC3)c3ccccc3c2CN1[C@@H]1CCCC[C@H]1O` [Example 53, 5-[(4-fluoro-4-phenylpiperidin-1-yl)methyl]-2-[(1R,2R)-2-hydroxycyclohexyl]-1,2-dihydro-3H-benzo[e]isoindol-3-one], with 6.61.
Take `N#CC1(c2ccccn2)CCN(Cc2cc3c(c4ccccc24)CN(C2CCOCC2)C3=O)CC1` [Example 54, 1-{[3-oxo-2-(tetrahydro-2H-pyran-4-yl)-2,3-dihydro-1H-benzo[e]isoindol-5-yl]methyl}-4-pyridin-2-ylpiperidine-4-carbonitrile]: the pEC50 was 6.55.
Then `N#CC1(c2ccccn2)CCN(Cc2cc3c(c4ccccc24)CN(C2CCCOC2)C3=O)CC1` (centres unmarked) [Example 55, 1-{[3-oxo-2-(tetrahydro-2H-pyran-3-yl)-2,3-dihydro-1H-benzo[e]isoindol-5-yl]methyl}-4-pyridin-2-ylpiperidine-4-carbonitrile], with 5.82; and `N#CC1(c2ccccc2)CCN(Cc2cc3c(c4ccccc24)CN([C@H]2CCCC[C@@H]2O)C3=O)CC1` [Example 56, 1-({2-[(1S,2S)-2-hydroxycyclohexyl]-3-oxo-2,3-dihydro-1H-benzo[e]isoindol-5-yl}methyl)-4-phenylpiperidine-4-carbonitrile], with 7.08; and `N#CC1(c2cccnc2)CCN(Cc2cc3c(c4ccccc24)CN([C@H]2CCCC[C@@H]2O)C3=O)CC1` [Example 57], with 7.66.
On to `N#CC1(c2ccncc2)CCN(Cc2cc3c(c4ccccc24)CN([C@H]2CCCC[C@@H]2O)C3=O)CC1` [Example 58, 1-({2-[(1S,2S)-2-hydroxycyclohexyl]-3-oxo-2,3-dihydro-1H-benzo[e]isoindol-5-yl}methyl)-4-pyridin-4-ylpiperidine-4-carbonitrile], for which the pEC50 is 7.68.
As for `N#CC1(c2ccccc2Cl)CCN(Cc2cc3c(c4ccccc24)CN([C@H]2CCCC[C@@H]2O)C3=O)CC1` [Example 59, 4-(2-chlorophenyl)-1-({2-[(1S,2S)-2-hydroxycyclohexyl]-3-oxo-2,3-dihydro-1H-benzo[e]isoindol-5-yl}methyl)piperidine-4-carbonitrile], the figure is 7.34; as for `N#CC1(c2ccccc2F)CCN(Cc2cc3c(c4ccccc24)CN([C@@H]2CCCC[C@@H]2O)C3=O)CC1` [Example 60, 4-(2-fluorophenyl)-1-({2-[(1R,2S)-2-hydroxycyclohexyl]-3-oxo-2,3-dihydro-1H-benzo[e]isoindol-5-yl}methyl)piperidine-4-carbonitrile], 7.36; as for `Cc1ccccc1C1(C#N)CCN(Cc2cc3c(c4ccccc24)CN([C@@H]2CCCC[C@@H]2O)C3=O)CC1` [Example 61, 1-({2-[(1R,2S)-2-hydroxycyclohexyl]-3-oxo-2,3-dihydro-1H-benzo[e]isoindol-5-yl}methyl)-4-(2-methylphenyl)piperidine-4-carbonitrile], 6.97.

The values above are taken from US9206200B2, “N-linked lactam M1 receptor positive allosteric mogulators” (Merck Sharp & Dohme Corp., priority 2011, dated 2015).
